The values that follow come from PMC7292393 (PLoS ONE, 2020).

Where “and” joins values, the source holds several entries; their conditions need not be identical. Identical values can stand only once. Entries after “also recorded” stand apart in the source; their conditions may differ. Like-named read-outs stand apart in the source and are kept apart here.

The target of test [1] is T1, human SUMO1 (Homo sapiens, UniProt P63165).
T1 construct: encoding amino acids 1–97 of mature human SUMO1; host or cells: E. coli BL21 Rosetta (DE3)
T1 sequence (P63165 1-97): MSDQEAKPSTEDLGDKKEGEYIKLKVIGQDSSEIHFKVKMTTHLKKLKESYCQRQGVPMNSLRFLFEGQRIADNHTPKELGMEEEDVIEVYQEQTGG
The test is described as follows: Differential scanning fluorimetry (DSF) thermal shift. The class given is binding. For orientation: In DSF a fluorescence change marks the thermal transition of the protein.

Test [2] deals with T1, human SUMO1. Description: SPR secondary screen / dose-dependent binding. Further details: key to SPR Screens 2°: ✓: dose-dependent saturation kinetics; ×: no indication of saturation kinetics.
For test [3], the target named is T2, sumoylation of tumor suppressor p53 by SUMO1 (Homo sapiens, UniProt P63165).
T2 construct: purchased Active Motif 40120
T2 sequence (P63165 1-97 limits assumed): as the sequence (P63165 1-97) above
Description: In vitro sumoylation (SUMOlink SUMO-1 Kit), Western blot. To be noted: 300 μM fisetin, 30°C for 3 hr. The format is biochemical. From the text:
(§1) To this end, we performed in vitro sumoylation experiments in which the cellular sumoylation reaction was reconstituted using purified human SUMO1, E1 activating enzyme, E2 conjugating enzyme, and two putative protein substrates (human tumor suppressor p53 and human transcription factor HSF1). E1 activating enzyme functions by transferring active SUMO1 protein to the E2 conjugating enzyme Ubc9, which in turn attaches SUMO1 onto target protein substrates. Both p53 and HSF1 proteins are linked to sumoylation as well as to cancer pathways.
(§2) Proteins were separated by SDS-PAGE using 4–20% or 7.5% Mini-PROTEAN TGX Precast Protein Gels (Bio-Rad, Hercules, CA) followed by detection with Bio-Safe Coomassie Stain (Bio-Rad). For Western immunoblotting experiments, proteins in SDS-PAGE gels were transferred onto a PVDF membrane at 4°C using Mini Trans-Blot Cell (Bio-Rad), blocked with 5% nonfat milk for 1 hr at room T or overnight at 4°C and incubated with the following primary antibodies at indicated dilutions for 1 hr at room T: 1:10,000 HSF1 polyclonal antibody (Enzo Life Sciences ADI-SPA-901-F; Lausen, Switzerland), 1:4000 p53 rabbit antibody (SUMOlink SUMO-1 Kit), 1:5000 SUMO-1 rabbit antibody (SUMOlink SUMO-1 Kit). Secondary antibody incubation was performed for 1 hr at room T using 1:10,000 goat anti-rabbit IgG polyclonal antibody (Enzo Life Sciences, ADI-SAB-300). […]

Test [4] concerns the target T3, sumoylation of HSF1 by SUMO1 (Homo sapiens, UniProt P63165).
T3 construct: purchased Active Motif 40120; host or cells: HSF1 substrate made in house in E. coli BL21 Rosetta (DE3)
The test is described as above. The format is biochemical. To be noted: 300 μM fisetin, 30°C for 3 hr.
Description: as §1, §2

T3 sequence (P63165 1-97 limits assumed): as the sequence (P63165 1-97) above

`O=c1c(O)c(-c2ccc(O)c(O)c2)oc2cc(O)ccc12` [Fisetin, 3,3',4',7-tetrahydroxyflavone]: the ΔTm (usually the change in melting temperature against a reference sample) at 300 µM on human SUMO1 [1] was below 2 °C. Also, the “effect on DSF thermogram / thermal stability of SUMO1” value on human SUMO1 [1] (2 μM SUMO1, 300 μM flavonoid) was “cause unfolding of human SUMO1; also recorded: unfolding of the protein at ambient temperature”. Moreover, on human SUMO1 [2] (Fig 2A-H), the “saturation binding in SPR secondary screen” value was “exhibited binding that approached saturation”. Moreover, the Kd is 228 µM and ~228 µM at human SUMO1 [2] (fisetin ~12 to 250 μM, Fig 2I, average of six replicates, read-out: Kd (SPR, extended range of concentrations)); 124 µM and ~124 µM on human SUMO1 [2] (one-site hyperbola fit, 31.25-500 μM flavonoid, Fig 2A-C, read-out: Kd (SPR secondary screen)); 124 to 228 µM at human SUMO1 [2] (range over the two experiments, Fig 2A and 2I, read-out: estimated Kd ranging (SPR)). Also, the “SPR Screens 2°” value at human SUMO1 [2] (five concentrations 31.25-500 μM) is reported as “✓”. Also, the “sumoylation of p53 in vitro” value in test [3] is listed as “no SUMO conjugates of p53 were detected; also recorded: completely inhibits sumoylation”. Besides, the “sumoylation of HSF1 in vitro” value in test [4] is recorded as “failed to alter sumoylation”.
